{
  "source": "patent US11407831B2",
  "about": "“Pharmaceutical composition administered in combination with substituted dihydropyrrolopyrazole compound and immunotherapeutic agent” (UBE INDUSTRIES, LTD., priority 2017, dated 2022)",
  "key": {"[1]": {"test_system": "Mouse melanoma cells (B16F10)", "assay": "Mouse Melanoma (B16F10) Cell Growth Inhibition Test", "format": "cell-based", "conditions": "B16-F10, 72 h, 3 days culture, CellTiter-Glo (ATP)", "description": "Mouse melanoma cells (B16F10) (Cell Resource Center for Biomedical Research, Institute of Development, Aging and Cancer, Tohoku University, Cat. No. TKG0348) were cultured in DMEM medium (REF. 11965-092 manufactured by GIBCO/Thermo Fisher Scientific Inc.) containing 10% FBS (REF. 10082-147 manufactured by GIBCO/Thermo Fisher Scientific Inc.), 1% penicillin/streptomycin/amphotericin B (REF. 15240-096 manufactured by GIBCO/Thermo Fisher Scientific Inc.), and 1 mM sodium pyruvate (REF. 11360-070 manufactured by GIBCO/Thermo Fisher Scientific Inc.) and inoculated at 0.5 to 2.0×10^3 cells/well to a 96-well plate. After overnight culture in a carbon dioxide incubator, culture was further performed for 3 days in a medium containing a solution of a test compound in DMSO (final DMSO concentration: 0.1%), and then, the amount of ATP was measured using CellTiter-Glo (manufactured by Promega Corp.).\nThe rate of inhibition of cell growth at each concentration was calculated from the test compound concentration and the amount of ATP, and the concentration of the test compound necessary for inhibiting 50% of cell growth (GI50 value) was calculated by using EXSUS (version 8.1.0, manufactured by CAC Croit Corp.)."}, "[2]": {"test_system": "Mouse melanoma cells (B16F10) subcutaneously transplanted", "assay": "In Vivo Tumor Growth Inhibition Test in Mouse Melanoma Cell (B16F10)-Subcutaneously Transplanted Mouse", "parameters": "species or system C57BL/6 mice", "conditions": "day 7", "description": "Mouse melanoma cells (B16F10) (Cell Resource Center for Biomedical Research, Institute of Development, Aging and Cancer, Tohoku University, Cat. No. TKG0348) were cultured in DMEM medium (REF. 11965-092 manufactured by GIBCO/Thermo Fisher Scientific Inc.) containing 10% FBS (REF. 10082-147 manufactured by GIBCO/Thermo Fisher Scientific Inc.), 1% penicillin/streptomycin/amphotericin B (REF. 15240-096 manufactured by GIBCO/Thermo Fisher Scientific Inc.), and 1 mM sodium pyruvate (REF. 11360-070 manufactured by GIBCO/Thermo Fisher Scientific Inc.) and adjusted to 1.0×10^7 cells/mL with PBS (REF. 10010-031 manufactured by GIBCO/Thermo Fisher Scientific Inc.). The prepared cell suspension was subcutaneously injected at 0.1 mL/mouse to the right abdomens of C57BL/6 mice (female, supplied by Japan SLC, Inc.). After rearing for a certain period, the long diameter (mm) and short diameter (mm) of tumor were measured with electronic calipers (manufactured by Mitsutoyo Corp., Cat. 500-712-10), and the tumor volume was calculated according to the following expression: Tumor volume (mm^3)=(Long diameter)×(Short diameter)×(Short diameter)×0.5\nIndividuals whose tumor volume was within the range of 50 to 200 mm^3 were selected and grouped such that the tumor volume was almost equivalent, then an anti-PD-1 antibody (manufactured by Bio X Cell) at 250 μg/mouse or Rat IgG2a (manufactured by Bio X Cell) at 250 μg/mouse was intraperitoneally administered, and further a test compound (25 mg/kg or 100 mg/kg) or only a solvent was orally administered to each group. The initial day of the start of administration was defined as day 0, and the anti-PD-1 antibody or Rat IgG2a were intraperitoneally administered on day 0 and day 3, and the test compound or only the solvent was orally administered once a day from day 0 to day 6. On day 7, the long diameter and short diameter of tumor were measured, and the tumor volume was calculated."}, "[3]": {"conditions": "test compound oral (25 mg/kg or 100 mg/kg) once a day day 0 to 6 + Rat IgG2a 250 μg/mouse i.p. day 0 and 3, vs Rat IgG2a + solvent group"}, "[4]": {"conditions": "test compound oral (25 mg/kg or 100 mg/kg) once a day day 0 to 6 in combination with anti-PD-1 antibody 250 μg/mouse i.p. day 0 and 3"}},
  "data": [
    {"smiles": "Cc1cccc(Br)c1NC(=O)N1Cc2c(NC(=O)C3([Si](C)(C)C)CCC3)n[nH]c2C1(C)C", "note": "[II-299, N-(2-Bromo-6-methylphenyl)-6,6-dimethyl-3-[1-(trimethylsilyl)cyclobutanecarboxamido]-4,6-dihydropyrrolo[3,4-c]pyrazole-5(1H)-carboxamide]", "values": [
      {"measurement": "GI50", "setting": "[1]", "value": "≤ 2000", "unit": "nM"}
    ]},
    {"smiles": "Cc1ccc(F)cc1NC(=O)N1Cc2c(NC(=O)C3([Si](C)(C)C)CCC3)n[nH]c2C1(C)C", "note": "[II-361, N-(5-Fluoro-2-methylphenyl)-6,6-dimethyl-3-[1-(trimethylsilyl)cyclobutanecarboxamido]-4,6-dihydropyrrolo[3,4-c]pyrazole-5(1H)-carboxamide]", "values": [
      {"measurement": "GI50", "setting": "[1]", "value": "≤ 2000", "unit": "nM"}
    ]},
    {"smiles": "CC1(C)c2[nH]nc(NC(=O)C3([Si](C)(C)C)CCC3)c2CN1C(=O)Nc1c(F)cccc1Cl", "note": "[II-113, N-(2-Chloro-6-fluorophenyl)-6,6-dimethyl-3-[1-(trimethylsilyl)cyclobutanecarboxamido]-4,6-dihydropyrrolo[3,4-c]pyrazole-5(1H)-carboxamide]", "values": [
      {"measurement": "GI50", "setting": "[1]", "value": "≤ 2000", "unit": "nM"}
    ]},
    {"smiles": "CC1(C)c2[nH]nc(NC(=O)C3([Si](C)(C)C)CCC3)c2CN1C(=O)Nc1c(F)ccc2ccoc12", "note": "[II-1049, N-(6-Fluorobenzofuran-7-yl)-6,6-dimethyl-3-[1-(trimethylsilyl)cyclobutanecarboxamido]-4,6-dihydropyrrolo[3,4-c]pyrazole-5(1H)-carboxamide]", "values": [
      {"measurement": "GI50", "setting": "[1]", "value": "≤ 2000", "unit": "nM"}
    ]},
    {"smiles": "Cc1cccc(Cl)c1NC(=O)N1Cc2c(NC(=O)C3([Si](C)(C)C)CCC3)n[nH]c2C1(C)C", "note": "[II-215, N-(2-Chloro-6-methylphenyl)-6,6-dimethyl-3-[1-(trimethylsilyl)cyclobutanecarboxamido]-4,6-dihydropyrrolo[3,4-c]pyrazole-5(1H)-carboxamide]", "values": [
      {"measurement": "GI50", "setting": "[1]", "value": "≤ 2000", "unit": "nM"},
      {"measurement": "Rate of inhibition of increase in tumor volume", "setting": "[2]; [3]", "value": "B (50% or more and less than 70%)"},
      {"measurement": "Rate of inhibition of increase in tumor volume", "setting": "[2]; [4]", "value": "A (70% or more and less than 90%)"}
    ]},
    {"smiles": "Cc1cc2ccc(F)c(NC(=O)N3Cc4c(NC(=O)C5([Si](C)(C)C)CCC5)n[nH]c4C3(C)C)c2o1", "note": "[II-1059, N-(6-Fluoro-2-methylbenzofuran-7-yl)-6,6-dimethyl-3-[1-(trimethylsilyl)cyclobutanecarboxamido]-4,6-dihydropyrrolo[3,4-c]pyrazole-5(1H)-carboxamide]", "values": [
      {"measurement": "GI50", "setting": "[1]", "value": "≤ 2000", "unit": "nM"}
    ]},
    {"smiles": "Cc1ccc(C)c(NC(=O)N2Cc3c(NC(=O)C4([Si](C)(C)C)CCC4)n[nH]c3C2(C)C)c1F", "note": "[II-669, N-(2-Fluoro-3,6-dimethylphenyl)-6,6-dimethyl-3-[1-(trimethylsilyl)cyclobutanecarboxamido]-4,6-dihydropyrrolo[3,4-c]pyrazole-5(1H)-carboxamide]", "values": [
      {"measurement": "GI50", "setting": "[1]", "value": "≤ 2000", "unit": "nM"}
    ]},
    {"smiles": "CC1(C)c2[nH]nc(NC(=O)C3([Si](C)(C)C)CCC3)c2CN1C(=O)Nc1c(F)ccc2cc(Cl)oc12", "note": "[II-1063, N-(2-Chloro-6-fluorobenzofuran-7-yl)-6,6-dimethyl-3-[1-(trimethylsilyl)cyclobutanecarboxamido]-4,6-dihydropyrrolo[3,4-c]pyrazole-5(1H)-carboxamide]", "values": [
      {"measurement": "GI50", "setting": "[1]", "value": "≤ 2000", "unit": "nM"},
      {"measurement": "Rate of inhibition of increase in tumor volume", "setting": "[2]; [3]", "value": "D (10% or more and less than 30%)"},
      {"measurement": "Rate of inhibition of increase in tumor volume", "setting": "[2]; [4]", "value": "B (50% or more and less than 70%)"}
    ]},
    {"smiles": "Cc1ccc(C)c(NC(=O)N2Cc3c(NC(=O)C4([Si](C)(C)C)CCC4)n[nH]c3C2(C)C)c1", "note": "[II-379, N-(2,5-Dimethylphenyl)-6,6-dimethyl-3-[1-(trimethylsilyl)cyclobutanecarboxamido]-4,6-dihydropyrrolo[3,4-c]pyrazole-5(1H)-carboxamide]", "values": [
      {"measurement": "GI50", "setting": "[1]", "value": "≤ 2000", "unit": "nM"},
      {"measurement": "Rate of inhibition of increase in tumor volume", "setting": "[2]; [3]", "value": "B (50% or more and less than 70%)"},
      {"measurement": "Rate of inhibition of increase in tumor volume", "setting": "[2]; [4]", "value": "A (70% or more and less than 90%)"}
    ]},
    {"smiles": "Cc1ccccc1NC(=O)N1Cc2c(NC(=O)C3([Si](C)(C)C)CCC3)n[nH]c2C1(C)C", "note": "[II-21, 6,6-Dimethyl-N-(o-tolyl)-3-[1-(trimethylsilyl)cyclobutanecarboxamido]-4,6-dihydropyrrolo[3,4-c]pyrazole-5(1H)-carboxamide]", "values": [
      {"measurement": "GI50", "setting": "[1]", "value": "≤ 2000", "unit": "nM"}
    ]}
  ]
}
